The values that follow come from patent US8450266B2 (Ipsen Pharma S.A.S., priority 2008, dated 2013).

Where a SMILES comes first, the peptide text is derived from it. [ ]: non-standard residue; d: D form. The star is where a group is joined. Decanoyl = CCCCCCCCCC(=O)*; Ac6c = NC1(C(=O)O)CCCCC1; Orn = NCCC[C@H](N)C(=O)O

Data set [1] is described as follows: Rat plasma half-life assay (LC-MS). The class given is in vitro ADME. The following applies: incubated at 37° C., read-out: Rat Plasma T½ (converted). In short, it runs like this: (§1)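 Aliquots taken from human or rat plasma at time points up to 72 h, quenched with formic acid and acetonitrile, centrifuged. Supernatant analyzed by LC-MS (ESI, positive ion, full scan) on a C8 column with a water/acetonitrile 1% formic acid gradient.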

Data set [2] is described as follows: Human plasma half-life assay (LC-MS). The class given is in vitro ADME. The following applies: incubated at 37° C., read-out: Human Plasma T½ (converted). An outline of the steps: as §1

For the compound `CCCN1C(=O)CC(SC[C@H](NC(=O)[C@H](CCCCN)NC(=O)[C@H](CCC(N)=O)NC(=O)[C@H](C)NC(=O)[C@H](CC(C)C)NC(=O)[C@H](CC(C)C)NC(=O)[C@H](Cc2c[nH]c3ccccc23)NC(=O)[C@H](CC(N)=O)NC(=O)[C@@H](NC(=O)[C@H](Cc2ccccc2)NC(=O)[C@H](CC(=O)O)NC(=O)[C@H](CCC(N)=O)NC(=O)[C@H](CCC(N)=O)NC(=O)[C@H](Cc2c[nH]cn2)NC(=O)[C@@H](NC(=O)[C@H](CCCCN)NC(=O)[C@H](CC(=O)O)NC(=O)[C@H](CCSC)NC(=O)[C@H](C)NC(=O)[C@@H](NC(=O)[C@H](CO)NC(=O)[C@H](Cc2ccc(O)cc2)NC(=O)[C@H](CC(=O)O)NC(=O)[C@H](CO)NC(=O)C2(NC(=O)[C@@H](N)Cc3ccccc3)CCCCC2)[C@@H](C)CC)[C@@H](C)CC)C(C)C)C(N)=O)C1=O` (stereo partly shown) [Example 34, [A6c^7, Cys(Psu)^31]hGIP(6-31)-NH2], the half-life at 0.1 mg/mL is 7.4 h in data set [1] and 11.3 h in data set [2].

`CCCN1C(=O)CC(SC[C@H](NC(=O)[C@H](CCCCN)NC(=O)[C@H](CCC(N)=O)NC(=O)[C@H](C)NC(=O)[C@H](CC(C)C)NC(=O)[C@H](CC(C)C)NC(=O)[C@H](Cc2c[nH]c3ccccc23)NC(=O)[C@H](CC(N)=O)NC(=O)[C@@H](NC(=O)[C@H](Cc2ccccc2)NC(=O)[C@H](CC(=O)O)NC(=O)[C@H](CCC(N)=O)NC(=O)[C@H](CCC(N)=O)NC(=O)[C@H](Cc2c[nH]cn2)NC(=O)[C@@H](NC(=O)[C@H](CCCCN)NC(=O)[C@H](CC(=O)O)NC(=O)[C@H](CCSC)NC(=O)[C@H](C)NC(=O)[C@@H](NC(=O)[C@H](CO)NC(=O)[C@H](Cc2ccc(O)cc2)NC(=O)[C@H](CC(=O)O)NC(=O)[C@H](CO)NC(=O)C2(NC(C)=O)CCCCC2)[C@@H](C)CC)[C@@H](C)CC)C(C)C)C(N)=O)C1=O` (stereo partly shown) [Example 29, [Ac-A6c^7, Cys(Psu)^31]hGIP(7-31)-NH2]: the half-life at 0.1 mg/mL is 7 h in data set [1] and 12.2 h in data set [2].

In the case of `CCCCCCCCCC(=O)NCCC[C@H](NC(=O)[C@H](CCCCN)NC(=O)[C@H](CCC(N)=O)NC(=O)[C@H](C)NC(=O)[C@H](CC(C)C)NC(=O)[C@H](CC(C)C)NC(=O)[C@H](Cc1c[nH]c2ccccc12)NC(=O)[C@H](CC(N)=O)NC(=O)[C@@H](NC(=O)[C@H](Cc1ccccc1)NC(=O)[C@H](CC(=O)O)NC(=O)[C@H](CCC(N)=O)NC(=O)[C@H](CCC(N)=O)NC(=O)[C@H](Cc1c[nH]cn1)NC(=O)[C@@H](NC(=O)[C@H](CCCCN)NC(=O)[C@H](CC(=O)O)NC(=O)[C@H](CCSC)NC(=O)[C@H](C)NC(=O)[C@@H](NC(=O)[C@H](CO)NC(=O)[C@H](Cc1ccc(O)cc1)NC(=O)[C@H](CC(=O)O)NC(=O)[C@@H](N)CO)[C@@H](C)CC)[C@@H](C)CC)C(C)C)C(=O)N[C@@H](CCCCN)C(=O)N[C@@H](CCCCN)C(=O)N[C@@H](CC(N)=O)C(=O)N[C@@H](CC(=O)O)C(=O)N[C@@H](Cc1c[nH]c2ccccc12)C(=O)N[C@@H](CCCCN)C(=O)N[C@@H](Cc1c[nH]cn1)C(=O)N[C@@H](CC(N)=O)C(=O)N[C@H](C(=O)N[C@H](C(=O)N[C@@H](CCC(N)=O)C(=O)O)[C@@H](C)O)[C@@H](C)CC` [Example 39, [Orn^31(N-C(O)-(CH2)8-CH3)]hGIP(8-42)-OH] (H-SDYSIAMDKIHQQDFVNWLLAQK[Orn](Decanoyl)KKNDWKHNITQ-OH), the half-life at 0.1 mg/ml in data set [1] is 13.7 h; in data set [2] it was 31.1 h.

For `CCCC[C@H](NC(=O)[C@H](C)NC(=O)[C@@H](NC(=O)[C@H](CO)NC(=O)[C@H](Cc1ccc(O)cc1)NC(=O)[C@H](CC(=O)O)NC(=O)[C@H](CO)NC(=O)C1(NC(=O)[C@@H](N)Cc2ccccc2)CCCCC1)[C@@H](C)CC)C(=O)N[C@@H](CC(=O)O)C(=O)N[C@@H](CCCCN)C(=O)N[C@H](C(=O)N[C@@H](Cc1c[nH]cn1)C(=O)N[C@@H](CCC(N)=O)C(=O)N[C@@H](CCC(N)=O)C(=O)N[C@@H](CC(=O)O)C(=O)N[C@@H](Cc1ccccc1)C(=O)N[C@H](C(=O)N[C@@H](CC(N)=O)C(=O)N[C@@H](Cc1c[nH]c2ccccc12)C(=O)N[C@@H](CC(C)C)C(=O)N[C@@H](CC(C)C)C(=O)N[C@@H](C)C(=O)N[C@@H](CCC(N)=O)C(=O)N[C@@H](CCCCN)C(N)=O)C(C)C)[C@@H](C)CC` [Example 36, (A6c^7, Nle^14)hGIP(6-30)-NH2] (HELM PEPTIDE1{F.[O=C(C1(N[*:1])CCCCC1)[*:2]].S.D.Y.S.I.A.[Nle].D.K.I.H.Q.Q.D.F.V.N.W.L.L.A.Q.K.[am]}$$$$V2.0), the figures for the half-life at 0.1 mg/mL in data set [1] and in data set [2] were 21.6 h and 21.9 h, respectively.

Consider `CCCCCCCCCC(=O)NCCC[C@H](NC(=O)[C@H](CCCCN)NC(=O)[C@H](CCC(N)=O)NC(=O)[C@H](C)NC(=O)[C@H](CC(C)C)NC(=O)[C@H](CC(C)C)NC(=O)[C@H](Cc1c[nH]c2ccccc12)NC(=O)[C@H](CC(N)=O)NC(=O)[C@@H](NC(=O)[C@H](Cc1ccccc1)NC(=O)[C@H](CC(=O)O)NC(=O)[C@H](CCC(N)=O)NC(=O)[C@H](CCC(N)=O)NC(=O)[C@H](Cc1c[nH]cn1)NC(=O)[C@@H](NC(=O)[C@H](CCCCN)NC(=O)[C@H](CC(=O)O)NC(=O)[C@H](CCSC)NC(=O)[C@H](C)NC(=O)[C@@H](NC(=O)[C@H](CO)NC(=O)[C@H](Cc1ccc(O)cc1)NC(=O)[C@H](CC(=O)O)NC(=O)[C@H](CO)NC(=O)C1(NC(C)=O)CCCCC1)[C@@H](C)CC)[C@@H](C)CC)C(C)C)C(=O)N[C@@H](CCCCN)C(=O)N[C@@H](CCCCN)C(=O)N[C@@H](CC(N)=O)C(=O)N[C@@H](CC(=O)O)C(=O)N[C@@H](Cc1c[nH]c2ccccc12)C(=O)N[C@@H](CCCCN)C(=O)N[C@@H](Cc1c[nH]cn1)C(=O)N[C@@H](CC(N)=O)C(=O)N[C@H](C(=O)N[C@H](C(=O)N[C@@H](CCC(N)=O)C(=O)O)[C@@H](C)O)[C@@H](C)CC` [Example 13, [Ac-A6c^7, Orn^31(N-C(O)-(CH2)8-CH3)]hGIP(7-42)-OH] (Ac-[Ac6c]SDYSIAMDKIHQQDFVNWLLAQK[Orn](Decanoyl)KKNDWKHNITQ-OH), for which the values for the half-life at 0.1 mg/ml in data set [1] and in data set [2] were 19 h and 17.8 h, respectively.
